The source of these data is patent publication US11028088B2, “Modulators of BTK proteolysis and methods of use” (Yale University, priority 2018, dated 2021).

The term DC50 denotes the midpoint of the concentration-degradation curve.

Experiment [1] deals with T1, HER3 (Homo sapiens, UniProt P21860).
T1 construct: endogenous in cells; host or cells: OVCAR8
The experiment is described as follows: HER3/ERBB3 degradation (western blot, OVCAR8 cells). The class given is cell-based. The method, then: FIG. 10 illustrates a Western blot of Compound 102-related degradation of ERBB3.
In various embodiments, treatment with PROTAC was performed in one of two ways: 1) For experiments involving >16 h exposure to compound, a 1000× stock was added to cells followed by gentle agitation; 2) For shorter treatments, a 2× stock was added to an equal volume of cells to ensure uniform drug exposure. For immortalized cell lines, 2×10^6 cells per treatment condition were collected and washed once with ice cold PBS (IX), followed by lysis in buffer containing 20 mM Tris [pH 8.0], 0.25% sodium deoxycholate, 1% Triton X-100, supplemented with protease (Roche) and phosphatase inhibitors (10 mM NaF, 2 mM Na3VO4, 10 mM β-glycerophosphate, 10 mM Na-pyrophosphate). Lysates were spun at 15,000×g for 10 min at 4° C. and supernatant was quantified for total protein content using the Pierce BCA Protein Assay (Thermo Fisher Scientific). 30 μg of protein was loaded onto 12% SDS-PAGE gels or 4-15% Mini-PROTEAN TGX precast gradient gels (Bio-Rad), transferred onto nitrocellulose membranes, and probed with the specified primary antibodies overnight with rocking at 4° C. in 1×TBS-T containing 5% non-fat milk.
(§1) Either anti-rabbit or anti-mouse HRP-conjugated secondary antibodies (Pierce) were incubated with the membranes for 1 h at room temperature at 1:10,000 dilutions in 5% non-fat milk in IX TBS-T. Imaging was performed using the ECL Prime chemiluminescent western blot detection reagents (Amersham) followed by visualization with the Bio-Rad ChemiDoc imaging instrument. All western blots were subsequently processed and quantified using the accompanying Bio-Rad Image Lab software. Primary antibodies used were: Anti-actin antibody (Cat. #MA 1-744) purchased from ThermoFisher Scientific; anti-BTK (Cat. #8547), anti-pBTK (Y223, Cat. #5082), anti-ITK (Cat. #2380), anti-GAPDH (Cat. #5179), anti-IKZF1 (Cat. #9034), and anti-IKZF3 (Cat. #15103) antibodies purchased from Cell Signaling Technology. All antibodies were used at 1:1,000 dilutions in 5% non-fat milk in 1×TBS-Tween (TBS-T) or Blotto blocker (Thermo Scientific) unless otherwise noted in supplier specifications.
Background: A western blot detects proteins with antibodies after separation by electrophoresis.

For experiment [2], the target named is BTK (Homo sapiens, UniProt Q06187). Nature of the experiment: BTK degradation in NAMALWA cells (immunoblot). It counts as cell-based. Set-up: host or cells: NAMALWA. Particulars: NAMALWA cells; for DC50: concentration needed to degrade 50% of the total pool of BTK. The procedure: NAMALWA and Jurkat cell lines were purchased from ATCC and cultured according to supplier guidelines at 37° C. […] Wild-type and C481S BTK XLA cell lines were cultured as previously described (39). Written, informed consent was obtained prior to the collection of cells from CLL patients using the IWCLL2008 criteria. Isolation of mononuclear cells from peripheral blood was prepared using density gradient centrifugation. B-cells were then negatively selected ([…] Technologies). […] They were maintained at 37° C. in 5% CO2.
Chain of BTK (Q06187 whole entry): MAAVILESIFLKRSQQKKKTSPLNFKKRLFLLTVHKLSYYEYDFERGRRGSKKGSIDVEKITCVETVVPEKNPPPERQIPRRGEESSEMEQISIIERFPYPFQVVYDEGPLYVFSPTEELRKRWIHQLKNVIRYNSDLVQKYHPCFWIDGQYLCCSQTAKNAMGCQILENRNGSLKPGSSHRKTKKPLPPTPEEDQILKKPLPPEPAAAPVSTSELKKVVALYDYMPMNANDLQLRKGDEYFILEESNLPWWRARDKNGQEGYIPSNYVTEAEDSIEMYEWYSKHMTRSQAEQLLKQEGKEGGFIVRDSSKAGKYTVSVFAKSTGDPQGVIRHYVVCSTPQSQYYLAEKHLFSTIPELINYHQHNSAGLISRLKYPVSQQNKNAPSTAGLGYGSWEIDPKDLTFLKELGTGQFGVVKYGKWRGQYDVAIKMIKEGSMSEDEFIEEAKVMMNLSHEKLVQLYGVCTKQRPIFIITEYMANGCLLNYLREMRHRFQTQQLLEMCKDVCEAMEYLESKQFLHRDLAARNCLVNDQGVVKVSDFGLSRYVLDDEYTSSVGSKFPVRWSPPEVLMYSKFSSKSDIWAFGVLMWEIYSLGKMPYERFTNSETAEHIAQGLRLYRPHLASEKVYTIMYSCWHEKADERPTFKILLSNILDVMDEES
Lysates were spun at 15,000×g for 10 min at 4° C. and supernatant was quantified for total protein content using the Pierce BCA Protein Assay (Thermo Fisher Scientific).
as §1, with “Primary antibodies used were: Anti-actin antibody (Cat. #MA 1-744) purchased from ThermoFisher Scientific; anti-BTK (Cat. #8547), anti-pBTK (Y223, Cat. #5082), anti-ITK (Cat. #2380), anti-GAPDH (Cat. #5179), anti-IKZF1 (Cat. #9034), and anti-IKZF3 (Cat. #15103) antibodies purchased from Cell Signaling Technology.” left out

Experiment [3] concerns the target BLK (Homo sapiens, UniProt P51451). Nature of the experiment: KINOMEscan competition binding assay, BLK. Particulars: read-out: KINOMEscan percentage of control, BLK.
The target in experiment [4] is T2, TEC (Homo sapiens, UniProt P42680).
T2 sequence (P42680 1-631): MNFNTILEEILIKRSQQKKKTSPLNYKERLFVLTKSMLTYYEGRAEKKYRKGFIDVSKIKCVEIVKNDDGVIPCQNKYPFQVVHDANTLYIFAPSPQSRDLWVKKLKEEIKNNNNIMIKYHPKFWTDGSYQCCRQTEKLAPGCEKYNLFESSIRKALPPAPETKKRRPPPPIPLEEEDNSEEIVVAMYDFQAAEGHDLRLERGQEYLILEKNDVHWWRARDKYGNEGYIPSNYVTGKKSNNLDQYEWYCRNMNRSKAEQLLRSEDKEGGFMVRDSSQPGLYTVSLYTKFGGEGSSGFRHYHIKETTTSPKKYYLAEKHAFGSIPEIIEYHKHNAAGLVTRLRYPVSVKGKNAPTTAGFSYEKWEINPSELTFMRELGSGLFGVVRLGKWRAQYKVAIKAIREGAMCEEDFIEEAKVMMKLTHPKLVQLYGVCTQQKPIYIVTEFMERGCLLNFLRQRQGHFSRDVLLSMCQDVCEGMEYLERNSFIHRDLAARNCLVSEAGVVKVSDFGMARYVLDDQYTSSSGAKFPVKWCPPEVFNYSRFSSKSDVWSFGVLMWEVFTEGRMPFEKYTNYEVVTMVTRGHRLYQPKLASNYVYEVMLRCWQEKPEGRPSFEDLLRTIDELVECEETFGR
The experiment is described as follows: KINOMEscan competition binding assay, TEC. As to conditions: read-out: KINOMEscan percentage of control, TEC.

Experiment [5] concerns the target T3, MKK7 (Homo sapiens, UniProt O14733).
T3 construct: purchased DiscoverX (KINOMEscan service)
T3 sequence (O14733 1-419): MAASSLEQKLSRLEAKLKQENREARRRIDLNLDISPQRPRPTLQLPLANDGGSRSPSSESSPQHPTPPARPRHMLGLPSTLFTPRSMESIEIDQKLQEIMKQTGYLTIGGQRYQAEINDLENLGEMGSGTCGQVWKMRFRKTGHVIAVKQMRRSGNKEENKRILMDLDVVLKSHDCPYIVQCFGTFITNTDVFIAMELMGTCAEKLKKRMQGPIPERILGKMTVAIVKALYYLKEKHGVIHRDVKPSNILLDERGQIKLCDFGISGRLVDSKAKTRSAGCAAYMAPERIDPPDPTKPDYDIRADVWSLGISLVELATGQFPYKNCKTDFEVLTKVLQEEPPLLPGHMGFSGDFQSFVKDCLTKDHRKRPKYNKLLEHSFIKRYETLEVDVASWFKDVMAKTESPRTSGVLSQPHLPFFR
The experiment is described as follows: KINOMEscan competition binding assay, MKK7. As to conditions: read-out: KINOMEscan percentage of control, MKK7.

For experiment [6], the target named is T4, JAK3 (Homo sapiens, UniProt P52333).
T4 construct: purchased DiscoverX (KINOMEscan service)
T4 sequence (P52333 811-1124 limits assumed): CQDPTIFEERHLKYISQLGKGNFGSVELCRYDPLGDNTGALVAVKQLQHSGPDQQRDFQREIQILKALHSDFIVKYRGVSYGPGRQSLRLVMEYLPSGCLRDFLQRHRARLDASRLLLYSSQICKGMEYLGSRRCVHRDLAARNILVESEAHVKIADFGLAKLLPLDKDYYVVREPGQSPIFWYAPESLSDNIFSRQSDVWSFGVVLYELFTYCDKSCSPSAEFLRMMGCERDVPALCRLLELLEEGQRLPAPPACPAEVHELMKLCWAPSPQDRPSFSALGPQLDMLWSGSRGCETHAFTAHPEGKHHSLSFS
The experiment is described as follows: KINOMEscan competition binding assay, JAK3. As to conditions: read-out: KINOMEscan percentage of control, JAK3.

For experiment [7], the target named is T5, ITK (Homo sapiens, UniProt Q08881).
T5 sequence (Q08881 1-620): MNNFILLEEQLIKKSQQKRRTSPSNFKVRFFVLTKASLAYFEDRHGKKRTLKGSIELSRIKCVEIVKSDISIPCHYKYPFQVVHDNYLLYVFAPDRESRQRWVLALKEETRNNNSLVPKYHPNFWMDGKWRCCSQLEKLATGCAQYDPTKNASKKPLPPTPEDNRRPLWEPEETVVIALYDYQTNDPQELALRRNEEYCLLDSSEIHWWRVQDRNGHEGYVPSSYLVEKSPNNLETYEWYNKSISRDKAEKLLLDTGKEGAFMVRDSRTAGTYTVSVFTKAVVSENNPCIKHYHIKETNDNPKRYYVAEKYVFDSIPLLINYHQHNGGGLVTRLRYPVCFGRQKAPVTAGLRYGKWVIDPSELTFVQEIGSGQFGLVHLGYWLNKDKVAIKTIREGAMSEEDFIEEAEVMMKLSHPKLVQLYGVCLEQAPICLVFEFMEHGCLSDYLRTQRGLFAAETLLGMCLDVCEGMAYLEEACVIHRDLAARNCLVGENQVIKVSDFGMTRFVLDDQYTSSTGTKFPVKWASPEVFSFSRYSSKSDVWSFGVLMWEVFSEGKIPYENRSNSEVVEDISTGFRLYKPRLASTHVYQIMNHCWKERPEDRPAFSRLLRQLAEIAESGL
Nature of the experiment: KINOMEscan competition binding assay, ITK. Set-up: purchased DiscoverX (KINOMEscan service). As to conditions: read-out: KINOMEscan percentage of control, ITK.

Each structure is given as a SMILES string. Read-outs that look alike come from different tables or passages of the source. Some results are limits rather than exact numbers.

T1 sequence (P21860 20-1342): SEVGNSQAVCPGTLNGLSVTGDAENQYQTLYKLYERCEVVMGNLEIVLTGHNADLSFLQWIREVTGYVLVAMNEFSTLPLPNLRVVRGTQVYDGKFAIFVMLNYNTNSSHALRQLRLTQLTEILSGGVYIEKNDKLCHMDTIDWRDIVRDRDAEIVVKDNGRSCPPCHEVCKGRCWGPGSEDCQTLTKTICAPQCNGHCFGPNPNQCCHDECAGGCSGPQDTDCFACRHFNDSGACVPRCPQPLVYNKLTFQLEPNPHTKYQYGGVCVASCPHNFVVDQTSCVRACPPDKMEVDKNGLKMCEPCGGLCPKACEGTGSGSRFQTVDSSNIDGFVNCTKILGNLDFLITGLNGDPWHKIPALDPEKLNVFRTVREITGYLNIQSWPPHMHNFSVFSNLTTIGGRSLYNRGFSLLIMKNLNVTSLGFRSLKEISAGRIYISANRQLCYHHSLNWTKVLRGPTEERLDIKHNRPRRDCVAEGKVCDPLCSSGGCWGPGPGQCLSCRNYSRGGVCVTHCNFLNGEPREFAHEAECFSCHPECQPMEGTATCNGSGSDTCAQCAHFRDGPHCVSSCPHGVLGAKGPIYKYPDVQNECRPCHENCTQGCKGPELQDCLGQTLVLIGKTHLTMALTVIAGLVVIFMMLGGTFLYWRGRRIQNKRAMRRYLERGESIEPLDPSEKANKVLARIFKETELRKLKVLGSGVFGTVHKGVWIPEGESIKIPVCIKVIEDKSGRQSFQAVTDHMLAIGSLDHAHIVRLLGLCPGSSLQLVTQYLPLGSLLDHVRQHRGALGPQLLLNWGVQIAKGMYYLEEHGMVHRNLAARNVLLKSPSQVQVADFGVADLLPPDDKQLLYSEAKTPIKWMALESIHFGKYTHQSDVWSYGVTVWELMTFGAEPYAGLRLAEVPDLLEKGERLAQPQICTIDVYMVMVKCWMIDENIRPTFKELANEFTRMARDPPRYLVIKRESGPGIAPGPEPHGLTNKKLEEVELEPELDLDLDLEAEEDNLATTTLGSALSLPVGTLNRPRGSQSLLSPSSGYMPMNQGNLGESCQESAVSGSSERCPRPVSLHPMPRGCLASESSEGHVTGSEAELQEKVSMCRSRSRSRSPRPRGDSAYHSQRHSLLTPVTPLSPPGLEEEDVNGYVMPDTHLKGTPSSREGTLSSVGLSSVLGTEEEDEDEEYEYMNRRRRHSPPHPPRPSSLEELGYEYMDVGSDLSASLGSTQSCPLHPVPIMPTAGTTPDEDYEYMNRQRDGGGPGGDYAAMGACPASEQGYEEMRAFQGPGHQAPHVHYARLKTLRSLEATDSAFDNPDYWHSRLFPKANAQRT
Chain of BLK (P51451 whole entry): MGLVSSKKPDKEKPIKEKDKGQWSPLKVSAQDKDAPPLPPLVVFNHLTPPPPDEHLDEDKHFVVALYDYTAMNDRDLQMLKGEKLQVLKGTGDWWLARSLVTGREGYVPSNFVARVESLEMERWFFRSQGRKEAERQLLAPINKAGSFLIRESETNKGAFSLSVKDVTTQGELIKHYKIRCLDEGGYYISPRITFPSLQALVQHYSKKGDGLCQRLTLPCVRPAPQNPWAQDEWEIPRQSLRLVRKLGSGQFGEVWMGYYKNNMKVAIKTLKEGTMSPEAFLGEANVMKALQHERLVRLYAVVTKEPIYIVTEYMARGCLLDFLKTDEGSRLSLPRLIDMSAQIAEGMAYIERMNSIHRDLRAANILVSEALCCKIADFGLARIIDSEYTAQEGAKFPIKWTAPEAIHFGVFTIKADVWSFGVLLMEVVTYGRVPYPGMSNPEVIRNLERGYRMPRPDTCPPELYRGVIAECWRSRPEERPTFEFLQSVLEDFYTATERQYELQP

As for `Cc1ncsc1-c1ccc(CNC(=O)[C@@H]2C[C@@H](O)CN2C(=O)[C@@H](NC(=O)CCCCCOCCCCCOCCCCCCN2CCC(n3nc(-c4ccc(Oc5ccccc5)cc4)c4c(N)ncnc43)CC2)C(C)(C)C)cc1` [Compound 117, (2S,4R)-1-((S)-2-(6-(5-(6-(4-(4-amino-3-(4-phenoxyphenyl)-1H-pyrazolo[3,4-d]pyrimidin-1-yl)piperidin-1-yl)hexyloxy)pentyloxy)hexanamido)-3,3-dimethylbutanoyl)-4-hydroxy-N-(4-(4-methylthiazol-5-yl)benzyl)pyrrolidine-2-carboxamide], the “HER3 Degradation” value in experiment [1] is “No”. Also, in experiment [2], the DC50 entry is “No Degradation”.

Consider `Cc1ncsc1-c1ccc(CNC(=O)[C@@H]2C[C@@H](O)CN2C(=O)[C@@H](NC(=O)COCCOCCOCCOCCOCCCCCCN2CCC(n3nc(-c4ccc(Oc5ccccc5)cc4)c4c(N)ncnc43)CC2)C(C)(C)C)cc1` [Compound 118, (2S,4R)-1-((S)-25-(4-(4-amino-3-(4-phenoxyphenyl)-1H-pyrazolo[3,4-d]pyrimidin-1-yl)piperidin-1-yl)-2,2-dimethyl-5-oxo-7,10,13,16,19-pentaoxa-4-azapentacosanecarbonyl)-4-hydroxy-N-(4-(4-methylthiazol-5-yl)benzyl)pyrrolidine-2-carboxamide], for which the “HER3 Degradation” value in experiment [1] was “No”. Besides, in experiment [2] (read-out: DC50), the DC50 was determined as 231 nM. The molecule also came in with a Max in experiment [2] (maximal BTK degradation, at 1.0 μM) of 40%.

Take `Cc1ncsc1-c1ccc(CNC(=O)[C@@H]2C[C@@H](O)CN2C(=O)[C@@H](NC(=O)CCCCCOCCOCCOCCOCCCCCCN2CCC(n3nc(-c4ccc(Oc5ccccc5)cc4)c4c(N)ncnc43)CC2)C(C)(C)C)cc1` [Compound 119, (2S,4R)-1-((S)-26-(4-(4-amino-3-(4-phenoxyphenyl)-1H-pyrazolo[3,4-d]pyrimidin-1-yl)piperidin-1-yl)-2,2-dimethyl-5-oxo-11,14,17,20-tetraoxa-4-azahexacosanecarbonyl)-4-hydroxy-N-(4-(4-methylthiazol-5-yl)benzyl)pyrrolidine-2-carboxamide]: in experiment [1], the “HER3 Degradation” value is recorded as “No”. In experiment [2], the DC50 entry is reported as “No Degradation”.

Consider `Cc1ncsc1-c1ccc(CNC(=O)[C@@H]2C[C@@H](O)CN2C(=O)[C@@H](NC(=O)CCCCCOCCOCCOCCOCCOCCCCCCN2CCC(n3nc(-c4ccc(Oc5ccccc5)cc4)c4c(N)ncnc43)CC2)C(C)(C)C)cc1` [Compound 120, (2S,4R)-1-((S)-29-(4-(4-amino-3-(4-phenoxyphenyl)-1H-pyrazolo[3,4-d]pyrimidin-1-yl)piperidin-1-yl)-2,2-dimethyl-5-oxo-11,14,17,20,23-pentaoxa-4-azanonacosanecarbonyl)-4-hydroxy-N-(4-(4-methylthiazol-5-yl)benzyl)pyrrolidine-2-carboxamide], for which the “HER3 Degradation” value in experiment [1] is on record as “No”. Besides, the DC50 entry in experiment [2] is given as “No Degradation”.

Turning to `C=CC(=O)Nc1cc(-c2nn(C3CCN(CCCOCCCOCCC(=O)Nc4cccc5c4C(=O)N(C4CCC(=O)NC4=O)C5=O)CC3)c3ncnc(N)c23)ccc1Oc1ccccc1` (stereo not drawn) [Compound 121, N-(5-(4-amino-1-(1-(3-(3-(3-(2-(2,6-dioxopiperidin-3-yl)-1,3-dioxoisoindolin-4-ylamino)-3-oxopropoxy)propoxy)propyl)piperidin-4-yl)-1H-pyrazolo[3,4-d]pyrimidin-3-yl)-2-phenoxyphenyl)acrylamide], the “HER3 Degradation” value in experiment [1] is listed as “No”. Also, the DC50 result in experiment [2] was “No Degradation”.

`C=CC(=O)Nc1cc(-c2nn(C3CCN(CCCCOCCCCOCC(=O)Nc4cccc5c4C(=O)N(C4CCC(=O)NC4=O)C5=O)CC3)c3ncnc(N)c23)ccc1Oc1ccccc1` (stereo not drawn) [Compound 122, N-(5-(4-amino-1-(1-(4-(4-(2-(2-(2,6-dioxopiperidin-3-yl)-1,3-dioxoisoindolin-4-ylamino)-2-oxoethoxy)butoxy)butyl)piperidin-4-yl)-1H-pyrazolo[3,4-d]pyrimidin-3-yl)-2-phenoxyphenyl)acrylamide]: the “HER3 Degradation” value in experiment [1] is listed as “No”. Also, the DC50 entry in experiment [2] is recorded as “No Degradation”.

`C=CC(=O)N1CCC[C@@H](n2nc(-c3ccc(Oc4ccccc4)cc3)c3c(N)ncnc32)C1` [ibrutinib, reference compound]: the remaining binding at 1 µM in experiment [3] was 0.1%; in experiment [4], 1.9%; in experiment [5] it was less than 10%; in experiment [6], less than 10%; in experiment [7], less than 10%.
